The structures appear in SMILES notation.

The test has as its target T1, HDAC6 enzyme (Homo sapiens, UniProt Q9UBN7).
T1 construct: prepared by transducing full length HDAC6 gene into Sf-9 insect cells; GST; purchased SignalChem; host or cells: Sf-9 insect cells
T1 sequence (Q9UBN7 1-1215): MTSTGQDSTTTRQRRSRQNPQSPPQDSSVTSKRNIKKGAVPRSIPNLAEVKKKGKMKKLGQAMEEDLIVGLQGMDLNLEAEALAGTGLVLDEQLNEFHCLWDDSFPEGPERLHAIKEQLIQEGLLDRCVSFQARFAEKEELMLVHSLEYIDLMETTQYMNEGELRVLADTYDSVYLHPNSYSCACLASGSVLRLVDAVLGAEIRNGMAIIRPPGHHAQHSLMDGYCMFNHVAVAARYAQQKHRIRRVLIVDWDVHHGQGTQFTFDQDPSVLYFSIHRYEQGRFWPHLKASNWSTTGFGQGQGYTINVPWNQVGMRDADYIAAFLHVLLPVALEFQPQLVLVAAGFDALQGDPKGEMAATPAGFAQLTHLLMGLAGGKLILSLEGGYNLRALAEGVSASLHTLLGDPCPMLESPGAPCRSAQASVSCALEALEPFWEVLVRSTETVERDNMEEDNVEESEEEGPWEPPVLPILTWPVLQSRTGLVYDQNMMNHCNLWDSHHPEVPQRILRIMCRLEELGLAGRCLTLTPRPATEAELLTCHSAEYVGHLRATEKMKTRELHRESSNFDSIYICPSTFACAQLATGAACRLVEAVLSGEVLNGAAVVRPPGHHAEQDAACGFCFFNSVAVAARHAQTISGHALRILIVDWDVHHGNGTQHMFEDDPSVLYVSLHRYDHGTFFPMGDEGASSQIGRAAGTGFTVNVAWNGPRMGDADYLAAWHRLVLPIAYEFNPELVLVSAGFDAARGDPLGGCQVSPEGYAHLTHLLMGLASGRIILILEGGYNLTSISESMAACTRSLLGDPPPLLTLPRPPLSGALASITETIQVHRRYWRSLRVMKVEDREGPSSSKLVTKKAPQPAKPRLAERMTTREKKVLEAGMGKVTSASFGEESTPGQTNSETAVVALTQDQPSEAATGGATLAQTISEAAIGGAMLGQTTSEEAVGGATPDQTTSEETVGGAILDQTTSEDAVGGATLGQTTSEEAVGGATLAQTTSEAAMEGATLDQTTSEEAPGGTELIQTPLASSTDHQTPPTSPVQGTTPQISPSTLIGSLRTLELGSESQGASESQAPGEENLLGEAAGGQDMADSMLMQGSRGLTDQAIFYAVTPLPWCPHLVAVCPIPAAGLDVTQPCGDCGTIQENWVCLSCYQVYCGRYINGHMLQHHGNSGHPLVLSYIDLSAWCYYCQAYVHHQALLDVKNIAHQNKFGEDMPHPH
Nature of the test: HDAC6 enzyme inhibitory assay (HDAC-Glo I/II Assay kit, luminescence). It counts as biochemical. As to conditions: 10 μM test compound; wells without enzyme = 100% inhibition; read-out: HDAC6 inhibitory rate (%) (10 μM). A digest of the protocol:
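Full-length human HDAC6, GST-purified from Sf-9 cells, was preincubated with compound for 60 min at room temperature in Tris-HCl pH 7.5 buffer with glutathione and Tween-20. Substrate-developer was then added, and luminescence was read after 20 min at room temperature. Inhibition was expressed relative to no-enzyme wells, taken as 100% inhibition.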

As for `CN1C(=O)c2cc(-c3nnc(C(F)F)o3)ccc2CC1c1ccc(F)cc1` (stereo not shown) [Example 33b, 7-[5-(difluoromethyl)-1,3,4-oxadiazol-2-yl]-3-(4-fluorophenyl)-2-methyl-3,4-dihydroisoquinolin-1(2H)-one], the inhibition at 10 µM turned out to be 100%.
Under `O=C1c2cc(-c3nnc(C(F)F)o3)cnc2CN1Nc1c(F)c(F)c(F)c(F)c1F` [Example 33c, 3-[5-(difluoromethyl)-1,3,4-oxadiazol-2-yl]-6-(pentafluoroanilino)-6,7-dihydro-5H-pyrrolo[3,4-b]pyridin-5-one] stands 99%; under `CNC(=O)c1ccc(Cn2ccnc2-c2cc(F)cc(-c3nnc(C(F)F)o3)c2)cc1F` [Example 34a, 4-[(2-{3-[5-(difluoromethyl)-1,3,4-oxadiazol-2-yl]-5-fluorophenyl}-1H-imidazol-1-yl)methyl]-2-fluoro-N-methylbenzamide], 98%; under `O=C1NN(c2ccc(F)c(F)c2)Cc2ncc(-c3nnc(C(F)F)o3)cc21` [Example 34b, 3-[5-(difluoromethyl)-1,3,4-oxadiazol-2-yl]-7-(3,4-difluorophenyl)-7,8-dihydropyrido[2,3-d]pyridazin-5(6H)-one], 100%.
As for `O=C1c2cc(-c3nnc(C(F)F)o3)ccc2CN1NC1CCOCC1` [Example 34c, 6-[5-(difluoromethyl)-1,3,4-oxadiazol-2-yl]-2-[(oxan-4-yl)amino]-2,3-dihydro-1H-isoindol-1-one], the inhibition at 10 µM came to 92%.
Regarding `Cn1ccc(OCc2ccccc2)c(-c2cc(F)cc(-c3nnc(C(F)F)o3)c2)c1=O` [Example 35a, 4-(benzyloxy)-3-{3-[5-(difluoromethyl)-1,3,4-oxadiazol-2-yl]-5-fluorophenyl}-1-methylpyridin-2(1H)-one], the inhibition at 10 µM is 98%.
Regarding `O=C1NN(c2ccc(F)c(Cl)c2)Cc2ncc(-c3nnc(C(F)F)o3)cc21` [Example 35b, 7-(3-chloro-4-fluorophenyl)-3-[5-(difluoromethyl)-1,3,4-oxadiazol-2-yl]-7,8-dihydropyrido[2,3-d]pyridazin-5(6H)-one], the inhibition at 10 µM is 100%.
`O=C1c2cc(-c3nnc(C(F)F)o3)ccc2CN1NC1CCC(F)(F)CC1` [Example 35c, 2-[(4,4-difluorocyclohexyl)amino]-6-[5-(difluoromethyl)-1,3,4-oxadiazol-2-yl]-2,3-dihydro-1H-isoindol-1-one]: the inhibition at 10 µM came out at 93%.
As to `FC(F)c1nnc(-c2ccnc(-c3nccn3Cc3ccccc3)c2)o1` [Example 36a, 2-(1-benzyl-1H-imidazol-2-yl)-4-[5-(difluoromethyl)-1,3,4-oxadiazol-2-yl]pyridine], the inhibition at 10 µM came to 101%.
Under `O=C1c2cc(-c3nnc(C(F)F)o3)ccc2CN1Nc1ccc(F)c(F)c1` [Example 36c, 2-(3,4-difluoroanilino)-6-[5-(difluoromethyl)-1,3,4-oxadiazol-2-yl]-2,3-dihydro-1H-isoindol-1-one] stands 98%.
`FC(F)c1nnc(-c2cncc(-c3nccn3Cc3ccccc3)c2)o1` [Example 37a, 3-(1-benzyl-1H-imidazol-2-yl)-5-[5-(difluoromethyl)-1,3,4-oxadiazol-2-yl]pyridine]: the inhibition at 10 µM stood at 99%.
Turning to `O=C1c2cc(-c3nnc(C(F)F)o3)ccc2CN1Nc1ccc(F)c(Cl)c1` [Example 37c, 2-(3-chloro-4-fluoroanilino)-6-[5-(difluoromethyl)-1,3,4-oxadiazol-2-yl]-2,3-dihydro-1H-isoindol-1-one], the inhibition at 10 µM is 99%.
On to `FC(F)c1nnc(-c2ccnc(-c3ncc(Cl)n3Cc3ccccn3)c2)o1` [Example 38a, 2-[5-chloro-1-[(pyridin-2-yl)methyl]-1H-imidazol-2-yl}-4-[5-(difluoromethyl)-1,3,4-oxadiazol-2-yl]pyridine], for which the inhibition at 10 µM turned out to be 98%.
With `CN1C(=O)c2cc(-c3nnc(C(F)F)o3)cnc2CC1(C)c1ccc(F)c(F)c1` (stereo not shown) [Example 38b, 3-[5-(difluoromethyl)-1,3,4-oxadiazol-2-yl]-7-(3,4-difluorophenyl)-6,7-dimethyl-7,8-dihydro-1,6-naphthyridin-5(6H)-one], the inhibition at 10 µM is 101%.
For `CN(C(=O)OC(C)(C)C)N1Cc2ccc(-c3nnc(C(F)F)o3)cc2C1=O` [Example 38c, tert-butyl {6-[5-(difluoromethyl)-1,3,4-oxadiazol-2-yl]-1-oxo-1,3-dihydro-2H-isoindol-2-yl}methylcarbamate] the value was 97%; for `FC(F)c1nnc(-c2ccnc(-c3nc(Cl)cn3Cc3ccccn3)c2)o1` [Example 39a, 2-{4-chloro-1-[(pyridin-2-yl)methyl]-1H-imidazol-2-yl}-4-[5-(difluoromethyl)-1,3,4-oxadiazol-2-yl]pyridine], 98%.
As for `O=C1c2cc(-c3nnc(C(F)F)o3)ccc2CN1Nc1ccc(F)cn1` [Example 39c, 6-[5-(difluoromethyl)-1,3,4-oxadiazol-2-yl]-2-[(5-fluoropyridin-2-yl)amino]-2,3-dihydro-1H-isoindol-1-one], the inhibition at 10 µM is 88%.
As for `FC(F)c1nnc(-c2ccnc(-c3nc(Cl)c(Cl)n3Cc3ccccn3)c2)o1` [Example 40a, 2-{4,5-dichloro-1-[(pyridin-2-yl)methyl]-1H-imidazol-2-yl}-4-[5-(difluoromethyl)-1,3,4-oxadiazol-2-yl]pyridine], the inhibition at 10 µM is 98%.
Turning to `CN(Cc1ccc(F)c(F)c1)N1Cc2ccc(-c3nnc(C(F)F)o3)cc2C1=O` [Example 40c, 6-[5-(difluoromethyl)-1,3,4-oxadiazol-2-yl]-2-{[(3,4-difluorophenyl)methyl](methyl)amino}-2,3-dihydro-1H-isoindol-1-one], the inhibition at 10 µM came out at 101%.
For `O=C1OCC(Cc2ccccn2)N1c1cc(F)cc(-c2nnc(C(F)F)o2)c1` (stereo not shown) [Example 41a, 3-{3-[5-(difluoromethyl)-1,3,4-oxadiazol-2-yl)-5-fluorophenyl}-4-[(pyridin-2-yl)methyl]-1,3-oxazolidin-2-one], the inhibition at 10 µM worked out at 21%.
With `CN(CC1CCOCC1)N1Cc2ccc(-c3nnc(C(F)F)o3)cc2C1=O` [Example 41c, 6-[5-(difluoromethyl)-1,3,4-oxadiazol-2-yl]-2-{methyl[(oxan-4-yl)methyl]amino}-2,3-dihydro-1H-isoindol-1-one], the inhibition at 10 µM stood at 99%.
Take `O=C1COCC(Cc2ccccn2)N1c1cc(F)cc(-c2nnc(C(F)F)o2)c1` (stereo not shown) [Example 42a]: the inhibition at 10 µM was determined as 68%.
Under `CN(Cc1cc(Cl)ccc1O)N1Cc2ccc(-c3nnc(C(F)F)o3)cc2C1=O` [Example 42c, 2-{[(5-chloro-2-hydroxyphenyl)methyl](methyl)amino}-6-[5-(difluoromethyl)-1,3,4-oxadiazol-2-yl]-2,3-dihydro-1H-isoindol-1-one] stands 98%; under `Fc1cc(-c2nnc(C(F)F)o2)cc(-c2nccn2Cc2cnccn2)c1` [Example 43a, 2-[(2-{3-[5-(difluoromethyl)-1,3,4-oxadiazol-2-yl]-5-fluorophenyl}-1H-imidazol-1-yl)methyl]pyrazine], 98%.
For `CN1C(=O)c2cc(-c3nnc(C(F)F)o3)ccc2OC1(C)c1cccnc1` (stereo not shown) [Example 43b, 6-[5-(difluoromethyl)-1,3,4-oxadiazol-2-yl]-2,3-dimethyl-2-(pyridin-3-yl)-2,3-dihydro-4H-1,3-benzoxazin-4-one], the inhibition at 10 µM came to 100%.

The values are drawn from patent US12084436B2, “Heterocyclic compound” (Takeda Pharmaceutical Company Limited, priority 2019, dated 2024).
